Measured values from US20200361871A1 (Enterprise Therapeutics Ltd., priority 2018, published 2020).

Molecular target: human TMEM16A (TMEM16Aabc variant) (Homo sapiens, UniProt Q5XXA6, DEL476-501, form not given)
Test: Automated whole-cell patch clamp (Qpatch) TMEM16A potentiator assay in FRT cells stably expressing human TMEM16A
Type: cell-based
Conditions: for % Potentiation @ 3.33 μM Avg: 3.33 μM solution of test compound, percentage increase of baseline TMEM16A current; for EC50: calculated EC50, Qpatch TMEM16A current at +70 mV
In short: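 Potentiation was read as the rise in peak +70 mV current over baseline (%), from cumulative 5-min additions of compound. Recordings used whole-cell automated patch of FRT cells stably carrying human TMEM16Aabc, with pipette Ca2+ buffered to give ~20% maximal current. EC50 and efficacy came from concentration-response fits.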

human TMEM16A (TMEM16Aabc variant), sequence (Q5XXA6 with tags, fused parts or gaps DEL476-501): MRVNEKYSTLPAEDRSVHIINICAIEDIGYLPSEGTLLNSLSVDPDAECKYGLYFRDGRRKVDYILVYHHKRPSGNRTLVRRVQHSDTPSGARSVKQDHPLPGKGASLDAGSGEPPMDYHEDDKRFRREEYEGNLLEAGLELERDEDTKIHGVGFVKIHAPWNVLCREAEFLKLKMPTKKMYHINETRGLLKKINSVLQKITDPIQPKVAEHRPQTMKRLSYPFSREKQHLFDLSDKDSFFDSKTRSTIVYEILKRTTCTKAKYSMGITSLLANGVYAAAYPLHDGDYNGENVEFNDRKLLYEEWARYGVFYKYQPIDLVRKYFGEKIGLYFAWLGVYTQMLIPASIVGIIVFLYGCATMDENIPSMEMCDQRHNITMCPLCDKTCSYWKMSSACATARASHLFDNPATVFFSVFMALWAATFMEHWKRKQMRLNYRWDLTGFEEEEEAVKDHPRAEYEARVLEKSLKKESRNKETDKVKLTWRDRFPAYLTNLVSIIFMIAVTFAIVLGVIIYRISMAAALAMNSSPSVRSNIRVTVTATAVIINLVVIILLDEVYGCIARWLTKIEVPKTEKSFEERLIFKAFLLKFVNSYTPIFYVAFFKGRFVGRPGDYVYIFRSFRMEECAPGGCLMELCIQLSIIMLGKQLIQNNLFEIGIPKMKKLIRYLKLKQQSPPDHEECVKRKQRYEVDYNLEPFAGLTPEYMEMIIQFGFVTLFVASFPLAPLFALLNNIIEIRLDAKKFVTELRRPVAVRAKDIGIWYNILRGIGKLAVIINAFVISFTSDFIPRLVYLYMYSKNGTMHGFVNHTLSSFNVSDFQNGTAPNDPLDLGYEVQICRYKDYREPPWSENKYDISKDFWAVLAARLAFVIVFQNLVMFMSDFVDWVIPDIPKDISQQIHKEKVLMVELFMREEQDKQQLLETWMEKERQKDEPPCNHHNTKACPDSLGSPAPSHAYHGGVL

Compound | % Potentiation @ 3.33 μM Avg [%] | EC50 [µM]
O=C(Cc1cc(Cl)ccc1O)Nc1ccnc(C(=O)N[C@H]2CC[C@@H](O)CC2)c1 [Example 7.12, 4-[2-(5-Chloro-2-hydroxyphenyl)acetamido]-N-[(1s,4s)-4-hydroxycyclohexyl]pyridine-2-carboxamide] | 101 | 2.11
CCC(C)NC(=O)c1cc(NC(=O)Cc2cc(Cl)ccc2O)ccn1 (stereo not shown) [Example 7.13, 4-[[2-(5-Chloro-2-hydroxy-phenyl)acetyl]amino]-N-sec-butyl-pyridine-2-carboxamide] | 212 | 0.09
CC(C)(O)C(C)(C)NC(=O)c1cc(NC(=O)Cc2cc(Cl)ccc2O)ccn1 [Example 7.14, 4-[[2-(5-Chloro-2-hydroxy-phenyl)acetyl]amino]-N-(2-hydroxy-1,1,2-trimethyl-propyl)pyridine-2-carboxamide] | 225 | 0.15
O=C(Cc1cc(Cl)ccc1O)Nc1ccnc(C(=O)NC23CC(C2)C3)c1 [Example 7.15, N-(3-Bicyclo[1.1.1]pentanyl)-4-[[2-(5-chloro-2-hydroxy-phenyl)acetyl]amino]pyridine-2-carboxamide] | 230 | 0.05
N#CC1(NC(=O)c2cc(NC(=O)Cc3cc(Cl)ccc3O)ccn2)CCC1 [Example 7.16, 4-[[2-(5-Chloro-2-hydroxy-phenyl)acetyl]amino]-N-(1-cyanocyclobutyl)pyridine-2-carboxamide] | 354 | 0.13
CC(C)(C)OC(=O)N1CCCC(NC(=O)c2cccc(NC(=O)Cc3cc(Cl)ccc3O)c2)C1 (stereo not shown) [Example 8, tert-Butyl-3-[[3-[[2-(5-chloro-2-hydroxy-phenyl)acetyl]amino]benzoyl]amino] piperidine-1-carboxylate] | 88 | 3.02
CC(C)(C)OC(=O)N1CCCC(NC(=O)c2cc(NC(=O)Cc3cc(Cl)ccc3O)ccn2)C1 (stereo not shown) [Example 8.1, tert-Butyl-3-[[4-[[2-(5-chloro-2-hydroxy-phenyl)acetyl]amino]pyridine-2-carbonyl]amino]piperidine-1-carboxylate] | 155 | 0.59
CC1(NC(=O)c2cccc(NC(=O)Cc3cc(Cl)ccc3O)c2)CCN(C(=O)OC(C)(C)C)CC1 [Example 8.2, tert-Butyl 4-[[3-[[2-(5-chloro-2-hydroxy-phenyl)acetyl]amino]benzoyl]amino]-4-methyl-piperidine-1-carboxylate] | 169 | 1.96
CC(C)(C)OC(=O)N1C[C@@H]2[C@H](C1)[C@H]2NC(=O)c1cc(NC(=O)Cc2cc(Cl)ccc2O)ccn1 [Example 8.3, tert-Butyl (1r,5s,6s)-6-{4-[2-(5-chloro-2-hydroxyphenyl)acetamido]pyridine-2-amido}-3-azabicyclo[3.1.0]hexane-3-carboxylate] | 238 | 0.23
CC(C)(C)NC(=O)c1ccc(F)c(NC(=O)Cc2cc(Cl)ccc2O)c1 [Example 9, N-tert-Butyl-3-[[2-(5-chloro-2-hydroxy-phenyl)acetyl]amino]-4-fluoro-benzamide] | 149 | 0.23
Cc1cc(NC(=O)Cc2cc(Cl)ccc2O)cc(C(=O)NC(C)(C)C)c1 [Example 9.1, N-tert-Butyl-3-[[2-(5-chloro-2-hydroxy-phenyl)acetyl]amino]-5-methyl-benzamide] | 77 | 4.62
CCC(C)(C)NC(=O)c1cc(NC(=O)Cc2cc(Cl)ccc2O)ccn1 [Example 9.2, 4-[[2-(5-Chloro-2-hydroxy-phenyl)acetyl]amino]-N-(1,1-dimethylpropyl)pyridine-2-carboxamide] | 196 | 0.19
CC(C)(C)NC(=O)c1cc(NC(=O)Cc2cc(C(C)(C)C)ccc2O)ccn1 [Example 10, N-tert-Butyl-4-[[2-(5-tert-butyl-2-hydroxy-phenyl)acetyl]amino]pyridine-2-carboxamide] | 250 | 0.22
CC(C)(C)NC(=O)c1cc(NC(=O)Cc2cc(Cl)ccc2O)ccc1O [Example 11, N-tert-Butyl-5-[[2-(5-chloro-2-hydroxy-phenyl)acetyl]amino]-2-hydroxy-benzamide] | 76 | 0.9
CC(C)(C)NC(=O)c1cccc(NC(=O)Cc2cc(C#N)ccc2O)c1 [Example 12, N-tert-Butyl-3-[[2-(5-cyano-2-hydroxy-phenyl)acetyl]amino] benzamide] | 112 | 1.76
COC(=O)c1ccc(O)c(CC(=O)Nc2ccnc(C(=O)NC(C)(C)C)c2)c1 [Example 13, Methyl 3-[2-[[2-(tert-butylcarbamoyl)-4-pyridyl]amino]-2-oxo-ethyl]-4-hydroxy-benzoate] | 245 | 1
CC(C)(C)NC(=O)c1ccc(O)c(NC(=O)Cc2cc(Cl)ccc2O)c1 [Example 14, N-tert-Butyl-3-[[2-(5-chloro-2-hydroxy-phenyl)acetyl]amino]-4-hydroxy-benzamide] | 58 | –

Compound | % Potentiation @ 3.33 μM Avg [%] | EC50 [µM]
Cc1ccc(O)c(CC(=O)Nc2ccnc(C(=O)NC(C)(C)C)c2)c1 [Example 15, N-tert-Butyl-4-[[2-(2-hydroxy-5-methyl-phenyl)acetyl]amino]pyridine-2-carboxamide] | 200 | 0.13
COc1ccc(C(=O)NC(C)(C)C)cc1NC(=O)Cc1cc(Cl)ccc1O [Example 16, N-tert-Butyl-3-[[2-(5-chloro-2-hydroxy-phenyl)acetyl]amino]-4-methoxy-benzamide] | 63 | –
CC(C)(C)NC(=O)c1cc(NC(=O)Cc2cc(Cl)ccc2O)ccc1F [Example 17, N-tert-Butyl-5-[[2-(5-chloro-2-hydroxy-phenyl)acetyl]amino]-2-fluoro-benzamide] | 173 | 1.49
CC(C)(C)NC(=O)c1cc(F)cc(NC(=O)Cc2cc(Cl)ccc2O)c1 [Example 18, N-tert-Butyl-3-[[2-(5-chloro-2-hydroxy-phenyl)acetyl]amino]-5-fluoro-benzamide] | 405 | 0.45
CC(C)(C)NC(=O)c1cc(NC(=O)Cc2ncccc2O)ccn1 [Example 19, N-tert-Butyl-4-[[2-(3-hydroxy-2-pyridyl)acetyl]amino]pyridine-2-carboxamide] | 57 | –
CC(C)(C)NC(=O)c1cc(NC(=O)Cc2cc(F)ccc2O)ccn1 [Example 20, N-tert-Butyl-4-[[2-(5-fluoro-2-hydroxy-phenyl)acetyl]amino]pyridine-2-carboxamide] | 111 | 0.22
C#CC(C)(C)NC(=O)c1cc(NC(=O)CC(C)(C)C)ccn1 [Example 22.1, 4-(3,3-Dimethylbutanoylamino)-N-(1,1-dimethylprop-2-ynyl)pyridine-2-carboxamide] | 114 | –
C#CC(C)(C)NC(=O)c1cc(NC(=O)CC2CCCC2)ccn1 [Example 22.2, 4-[(2-Cyclopentylacetyl)amino]-N-(1,1-dimethylprop-2-ynyl)pyridine-2-carboxamide] | 157 | 0.26
C#CC(C)(C)NC(=O)c1cc(NC(=O)Cc2ccncc2Cl)ccn1 [Example 22.3, 4-[[2-(3-Chloro-4-pyridyl)acetyl]amino]-N-(1,1-dimethylprop-2-ynyl)pyridine-2-carboxamide] | 132 | –
N#CC1(NC(=O)c2cc(NC(=O)Cc3ccc(Cl)cc3)ccn2)CC1 [Example 23, 4-[[2-(4-Chlorophenyl)acetyl]amino]-N-(1-cyanocyclopropyl)pyridine-2-carboxamide] | 93 | –
N#CC1(NC(=O)c2cc(NC(=O)Cc3cccc(Cl)c3)ccn2)CC1 [Example 23.1, 4-[[2-(3-Chlorophenyl)acetyl]amino]-N-(1-cyanocyclopropyl)pyridine-2-carboxamide] | 150 | –
N#CC1(NC(=O)c2cc(NC(=O)Cc3cc(F)ccc3Cl)ccn2)CC1 [Example 23.2, 4-[[2-(2-Chloro-5-fluoro-phenyl)acetyl]amino]-N-(1-cyanocyclopropyl)pyridine-2-carboxamide] | 87 | –
CC(C)(C)NC(=O)c1cc(NC(=O)C2Cc3ccccc3C2)ccn1 [Example 23.3, N-tert-Butyl-4-(indane-2-carbonylamino)pyridine-2-carboxamide] | 59 | 0.47
CC(C)(C)NC(=O)c1cc(NC(=O)Cc2ccccc2OC(F)F)ccn1 [Example 23.4, N-tert-Butyl-4-[[2-[2-(difluoromethoxy)phenyl]acetyl]amino]pyridine-2-carboxamide] | 115 | –
CC(C)(C)NC(=O)c1cc(NC(=O)Cc2ccccc2C(F)F)ccn1 [Example 23.5, N-tert-Butyl-4-[[2-[2-(difluoromethyl)phenyl]acetyl]amino]pyridine-2-carboxamide] | 110 | –
CC(C)(C)NC(=O)c1cc(NC(=O)Cc2ccc(F)c(F)c2)ccn1 [Example 23.6, N-tert-Butyl-4-[[2-(3,4-difluorophenyl)acetyl]amino]pyridine-2-carboxamide] | 108 | –
